Measurements published in patent US20230210866A1 (priority 2020, published 2023).
Values joined by “and” are separate entries in the source; they are usually repeats but may differ in a detail not shown here. Equal entries are not always repeated. Where two headings read alike, the source gives them in different places.

Tests used:
SARS-CoV-2 virus [1] = experiment: Reconstituted human respiratory epithelium of nasal origin (MucilAir HAE) infected with SARS-CoV-2, viral genome RT-PCR; format: cell-based; settings: alone or combined
Experimental: In order to produce the infections, we have also used a reconstituted human epithelium model (HAE MucilAir, Epithelix), obtained from primary human cells obtained by nasal biopsies, cultivated at the air-liquid interface with a specific culture medium in Costar Transwell inserts (Corning, NY, USA). For the infection experiments, the apical poles were gently washed twice using the medium OptiMEM (Gibco, ThermoFisher Scientific), then infected with 150 µl of virus dilution in medium OptiMEM, with a multiplicity of infection (MOI) of 0.1. After incubation for one hour at 37° C., 5% CO2, the viral suspension was withdrawn.
A quantitative “one-step” PCR was performed using the StepOnePlus Real Time PCR System kit (Applied Biosystems), with the reagent EXPRESS One-Step Superscript qRT-PCR (Invitrogen), in a reaction volume of 20 µl containing 10 µl of supermix Express qPCR (2×), 1 µl of each primer (10 µM), […], 0.4 µl Rox dye (25 µM) and 2 µl of viral RNA.
The following program was used: 15 minutes at 50° C., followed by 40 cycles (15 s 95° C.; 1 min 60° C.).
Reconstituted human respiratory epithelia of nasal origin and cultivated at the air-liquid interface (MucilAir® HAE, Epithelix) were infected with SARS-CoV-2 (MOI 0.1). The basal medium was treated once per day by the following molecules, in simple or combination treatment: • diltiazem (45 or 90 µM), • remdesivir (20 or 40 µM) and • berberine (4 µM) for 48 or 72 hours post-infection.
At various times, the epithelia were harvested and lysed. The total RNA was extracted and the viral genomes were quantified by RT-PCR by normalising the data using the quantification of the product of a cellular gene (GAPDH).

SARS-CoV-2 virus [2] = experiment: Vero E6 cells infected by SARS-CoV-2, viral infectious titre in culture supernatant; format: cell-based; settings: monotherapy
Experimental: The viral production relative to each of the concentrations of molecules has been determined and is shown with respect to the viral production from infected cells or HAE under the same conditions but untreated. The median inhibitory concentrations (IC50) were determined for each treatment condition.
The Vero E6 (ATCC CRL-1586) cells were cultivated in medium DMEM 4.5 g/l of glucose, supplemented by L-glutamine and penicillin/streptomycin and 10% inactivated foetal calf serum, at 37° C., 5% CO2.
In order to produce the infections, the cells were rinsed twice by the medium without serum and were covered by a minimum volume containing a dilution of virus, this dilution being determined from the infectious titre (cf. section on determination of the infectious titre), in order to obtain an adequate multiplicity of infection (MOI). After incubation for one hour in the presence of a minimum volume, the medium was replaced by the medium DMEM 4.5 g/l of glucose, supplemented by L-glutamine and penicillin/streptomycin and 2% inactivated foetal calf serum, and the cells were incubated again at 37° C., 5% CO2.
The determination of the infectious titre was performed using a limited dilution technique, on these Vero E6 cells on a 96-well plate. A volume of 50 µl of series dilutions was deposited in the wells in quadruplicates. The cells were then incubated at 37° C., 5% CO2 and the presence of cytopathic effects is then monitored after 3 days of infection. The infectious dose in tissue culture 50% (DICT50/ ml), i.e. the viral titre required to form an infection in 50% of inoculated cells, was calculated using the technique of Reed and Muench.
Vero E6 cells infected by SARS-CoV-2 (MOI 0.1) were treated at one hour post-infection by increasing concentrations of: • diltiazem (2.8 to 45 µM), • berberine (1.6 to 25 µM), and • remdesivir (0.6 to 10 µM), alone (FIG. 1) and in combination (FIG. 2).
For each of the combined treatments tested, a dose of one of the molecules was fixed and combined with increasing concentrations of the other molecule (same concentration ranges as those used in monotherapy, respectively) and vice versa. The viral infectious titres measured in the culture supernatants of the infected cells (sampled at 48 and 72 hours post-infection) reflect the level of viral replication measured under the various treatment conditions.

[3] = tested on: SARS-CoV-2 (Wuhan-like strain); experiment: IC50 of diltiazem on SARS-CoV-2 in A549-ACE2 cells, RT-PCR; format: cell-based; settings: Severe acute respiratory syndrome coronavirus 2; A549-ACE2, MOI 10^-1, treated 1 hpi, 72 hours after infection
Experimental: The experimental protocol is the following: • Seeding of the A549-ACE2 cells, • 24 hours after infection of A549-ACE2 cells with a Wuhan-like strain of SARS-CoV-2 (MOI 10^-1), • 1 hour post infection (pi), the cells are treated with diltiazem at different concentrations. • The supernatants are sampled at 72 hours after the infection for a viral quantification by RT-PCR.
The IC50 is the median inhibitory concentration, i.e. the quantity of diltiazem necessary to obtain 50% inhibition of the viral replication of the tested SARS-CoV-2 strain.

[4] = Cytotoxicity (CC50) on A549-ACE2 cells, MTS test; format: cell-based; settings: human, 72 hours of treatment, read-out: CC50 (cytotoxic concentration 50%)
Experimental: In parallel, the cytotoxicity of diltiazem on A549-ACE2 cells has been verified under the same experimental conditions. For this purpose, the CC50 (cytotoxic concentration 50%), which corresponds to the necessary dose of diltiazem in order to reduce the viability of the cells by half, was measured by monitoring the viability of the A549-ACE2 cells in the presence of various concentrations of diltiazem. The variability was determined by an MTS carried out 72 hours after the start of the treatment.
The MTS test is a colorimetric method: the method is based on the reduction of the compound MTS tetrazolium by viable cells in order to generate a coloured formazan product, enabling the counting of viable cells (coloured) […].

[5] = tested on: SARS-CoV-2 (Wuhan-like strain); experiment: A549-ACE2 cells infected with SARS-CoV-2, viral titre in supernatant over time by RT-PCR; format: cell-based; settings: A549-ACE2, MOI 10^-1 and 10^-2, single treatment 1 hpi, diltiazem 45 µM or remdesivir 5 µM, 24-96 hpi
Description: The cells of the cell line A549 are human alveolar basal epithelial cells derived from adenocarcinoma. This cell line is used as a model for the study of lung cancer, but also as target cells for infectious viruses targeting the respiratory tract. These cells were subsequently modified to express the ACE2 receptor, via which the SARS-CoV-2 virus penetrates into the hosts cells. This cell line A549-ACE2 was obtained from Creative Biogene (USA).
The experimental protocol is the following: • Seeding of the A549-ACE2 cells, • 24 hours after infection of the A549-ACE2 cells with a Wuhan-like strain of SARS-CoV-2 (MOI 10^-1 and 10^-2), • 1 hour post infection (pi), the cells are treated with 45 uM diltiazem. • The supernatants are sampled at 24 hours, 48 hours, 72 hours and 96 hours after the infection for a viral quantification by RT-PCR.
The incubation media used are the following: • Seeding medium: DMEM 1 g/L glucose (Glc), 200 mM L-Glutamine (L-Glu), […] penicillin/streptomycin (P/S), 10% foetal calf serum (FCS) • Infection medium: DMEM 1 g/L Glc, 200 mM L-Glu, 104 U P/S, 0% FCS • Treatment medium: DMEM 1 g/L Glc, 200 mM L-Glu, 104 U P/S, 2% FCS

coronavirus SARS-CoV-2 = format: cell-based
[6] = cited from earlier work
[7] = MOI 0.1, 48 hpi, remdesivir 20 µM, diltiazem 90 µM, berberine 4 µM
[8] = MOI 0.1, 72 hpi, remdesivir 20 µM, diltiazem 90 µM
[9] = MOI 0.1, 72 hpi, remdesivir 40 µM, diltiazem 45 µM
[10] = Severe acute respiratory syndrome coronavirus 2, Vero C1008, Vero E6, MOI 0.01, 48 hpi, read-out: IC50
[11] = Severe acute respiratory syndrome coronavirus 2, Vero C1008, Vero E6, MOI 0.01, 72 hpi, read-out: IC50

Structure (SMILES)	Reduction Relative viral production (%) (SARS-CoV-2 virus [1]; [7])	Reduction Relative viral production (-log10) (SARS-CoV-2 virus [1]; [7])	Reduction Relative viral production (%) (SARS-CoV-2 virus [1]; [8])	Reduction Relative viral production (-log10) (SARS-CoV-2 virus [1]; [8])	Reduction Relative viral production (%) (SARS-CoV-2 virus [1]; [9])	Reduction Relative viral production (-log10) (SARS-CoV-2 virus [1]; [9])	IC50 (SARS-CoV-2 virus [2]; [10]) [µM]	IC50 (SARS-CoV-2 virus [2]; [11]) [µM]	IC50 [3] [µM]	CC50 at 72 h [4] [µM]	Inhibition of the viral titre in the supernatant over time (% of untreated) [5]	Reduction Relative viral production (-log10) (SARS-CoV-2 virus [1]; MOI 0.1, 48 hpi, remdesivir 20 µM, diltiazem 90 µM, berberine 4 µM, listed as remdesivir)	Antiviral action against coronavirus SARS-CoV-2 (coronavirus SARS-CoV-2)	bioavailability [6]	half-life [6] [h]	IC50 (SARS-CoV-2 virus [2]; Severe acute respiratory syndrome coronavirus 2, Vero C1008, Vero E6, MOI 0.01, 48 hpi) [µM]	IC50 (SARS-CoV-2 virus [2]; Severe acute respiratory syndrome coronavirus 2, Vero C1008, Vero E6, MOI 0.01, 72 hpi) [µM]	IC50 (SARS-CoV-2 virus [2]; Vero E6, MOI 0.01, 72 hpi, read-out: IC50) [µM]
COc1ccc([C@@H]2Sc3ccccc3N(CCN(C)C)C(=O)[C@@H]2OC(C)=O)cc1.Cl [Diltiazem, diltiazem]	55.13	0.35 -log10 and 0.348 -log10	29.37	0.15 -log10 and 0.151 -log10	31.35	0.16 -log10 and 0.1634 -log10	> 45	> 45	19.7	374	same level of inhibition of the viral titre							
CCC(CC)COC(=O)[C@H](C)N[P@](=O)(OC[C@H]1O[C@@](C#N)(c2ccc3c(N)ncnn23)[C@H](O)[C@@H]1O)Oc1ccccc1 [Remdesivir, remdesivir]	100	more than 7.75 -log10	99.62		99.5	2.3 -log10 and 2.24 -log10	0.98	0.72				7.351 -log10						
O=c1cc(-c2ccc(O)cc2)oc2cc(O)cc(O)c12 [apigenin]													does not have a significant antiviral action					
COc1ccc2cc3[n+](cc2c1OC)CCc1cc2c(cc1-3)OCO2 [Berberine, berberine]	86.37	0.86 -log10 and 0.8655 -log10												low	~4	17.5	< 5.6	5.6 ± 1.7
